Source: ChEMBL document CHEMBL1127238, “The discovery of L-699,392, a novel potent and orally active leukotriene D4 receptor antagonist” (Bioorg Med Chem Lett, 1994)

Key:
[1] = biological target: T1, Cysteinyl leukotriene receptor 1 (Cavia porcellus, UniProt Q2NNR5); assay: Inhibitory activity against binding of [3H]LTD4 to Cysteinyl leukotriene D4 receptor in guinea pig lung membranes; assay type: cell membranes, Membrane
T1 sequence (Q2NNR5 whole entry): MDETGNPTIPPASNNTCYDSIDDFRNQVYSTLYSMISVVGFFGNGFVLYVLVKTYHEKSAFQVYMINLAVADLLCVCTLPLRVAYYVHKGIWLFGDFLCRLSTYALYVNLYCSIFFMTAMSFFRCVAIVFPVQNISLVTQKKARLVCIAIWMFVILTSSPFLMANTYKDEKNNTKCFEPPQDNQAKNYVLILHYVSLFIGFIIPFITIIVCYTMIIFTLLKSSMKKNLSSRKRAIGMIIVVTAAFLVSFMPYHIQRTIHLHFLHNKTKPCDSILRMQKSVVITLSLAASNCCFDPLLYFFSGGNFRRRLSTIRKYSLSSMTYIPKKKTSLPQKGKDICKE

[2] = Compound was tested for plasma clearance in rats after 5 mg/kg of intravenous dosing; assay type: ADME, organism-based; design: dose 5 mg/kg, route intravenous; details: rat
[3] = Apparent bioavailability in squirrel monkey was determined; assay type: ADME, organism-based; details: in vivo; read-out: Bioavailabiility

| Structure (SMILES) | IC50 [1] | clearance [2] | bioavailability [3] |
| --- | --- | --- | --- |
| C[C@H](CS[C@@H](CCc1ccccc1C(=O)c1ccccc1)c1cccc(/C=C/c2ccc3ccc(Cl)cc3n2)c1)C(=O)O | 4.3 nM | 18 mL/min/kg |  |
| CC(=O)c1ccccc1CC[C@H](SC[C@@H](C)C(=O)O)c1cccc(/C=C/c2ccc3ccc(Cl)cc3n2)c1 | 3 nM | 11 mL/min/kg | 52% |
| C[C@H](CS[C@@H](CCc1ccccc1CO)c1cccc(/C=C/c2ccc3ccc(Cl)cc3n2)c1)C(=O)O | 3.1 nM | 5 mL/min/kg |  |
| C[C@H](CS[C@@H](CCc1ccccc1C=O)c1cccc(/C=C/c2ccc3ccc(Cl)cc3n2)c1)C(=O)O | 2 nM | 6 mL/min/kg |  |
| COC(=O)c1cccc(CC[C@H](SC[C@@H](C)C(=O)O)c2cccc(/C=C/c3ccc4ccc(Cl)cc4n3)c2)c1 | 7 nM | 6 mL/min/kg |  |
| C[C@H](CS[C@@H](CCc1ccccc1CC(C)(C)O)c1cccc(/C=C/c2ccc3ccc(Cl)cc3n2)c1)C(=O)O | 1 nM | 33 mL/min/kg |  |
| CC(=O)c1cccc(CC[C@H](SC[C@@H](C)C(=O)O)c2cccc(/C=C/c3ccc4ccc(Cl)cc4n3)c2)c1 | 5.9 nM | 2 mL/min/kg |  |
| CCC(=O)c1ccccc1CC[C@H](SC[C@@H](C)C(=O)O)c1cccc(/C=C/c2ccc3ccc(Cl)cc3n2)c1 | 3.7 nM | 13 mL/min/kg |  |
| C[C@H](CS[C@@H](CCc1cccc(CO)c1)c1cccc(/C=C/c2ccc3ccc(Cl)cc3n2)c1)C(=O)O | 2.1 nM | 2.5 mL/min/kg |  |
| C[C@H](CS[C@@H](CCc1ccccc1C(C)(C)O)c1cccc(/C=C/c2ccc3ccc(Cl)cc3n2)c1)C(=O)O | 2.7 nM | 14 mL/min/kg |  |
| CCOC(=O)c1ccccc1CC[C@H](SC[C@@H](C)C(=O)O)c1cccc(/C=C/c2ccc3ccc(Cl)cc3n2)c1 | 3.7 nM | 4.8 mL/min/kg |  |
